Data from patent US20250296959A1, “B7-H3 TARGETING PEPTIDES AND CONSTRUCTS THEREOF” (Mariana Oncology Inc., priority 2024, published 2025).
pKd: −log10 of the molar value. Starred links: 1 amine or outer side, 2 acyl side, 3 side chain; linkers in the order of their positions; H or OH if unused. Positions of bridges follow the written chain, without caps; N, C: chain ends. Non-standard residues stand in square brackets, D forms with d. Residues, ends and D or L forms follow the SMILES beside them. *: point of attachment. Ala(1-CH2CO2H-4-piperidyl) = N[C@@H](CC1CCN(CC(=O)O)CC1)C(=O)O; DOTA = O=C(O)CN1CCN(CC(=O)O)CCN(CC(=O)*)CCN(CC(=O)O)CC1; Phe(4-COOH) = N[C@@H](Cc1ccc(C(=O)O)cc1)C(=O)O; Trp(5-F) = N[C@@H](Cc1c[nH]c2ccc(F)cc12)C(=O)O; 1Nal = N[C@@H](Cc1cccc2ccccc12)C(=O)O; Ala(4-THP) = N[C@@H](CC1CCOCC1)C(=O)O; Val(3-OH) = CC(C)(O)[C@H](N)C(=O)O; 4Pal = N[C@@H](Cc1ccncc1)C(=O)O; Tle = CC(C)(C)[C@H](N)C(=O)O; hLeu = CC(C)CC[C@H](N)C(=O)O; Nle = CCCC[C@H](N)C(=O)O; CH2 = C([*:1])[*:2]

Each compound was assayed against T1, human 4lg B7-H3 (Homo sapiens, UniProt Q5ZPR3) (assay: Affinity determination by surface plasmon resonance (SPR) to 4Ig B7-H3). Conditions: SPR KD—25° C., 4Ig B7-H3; 25° C. flow cell temperature.
T1 sequence (Q5ZPR3 29-534): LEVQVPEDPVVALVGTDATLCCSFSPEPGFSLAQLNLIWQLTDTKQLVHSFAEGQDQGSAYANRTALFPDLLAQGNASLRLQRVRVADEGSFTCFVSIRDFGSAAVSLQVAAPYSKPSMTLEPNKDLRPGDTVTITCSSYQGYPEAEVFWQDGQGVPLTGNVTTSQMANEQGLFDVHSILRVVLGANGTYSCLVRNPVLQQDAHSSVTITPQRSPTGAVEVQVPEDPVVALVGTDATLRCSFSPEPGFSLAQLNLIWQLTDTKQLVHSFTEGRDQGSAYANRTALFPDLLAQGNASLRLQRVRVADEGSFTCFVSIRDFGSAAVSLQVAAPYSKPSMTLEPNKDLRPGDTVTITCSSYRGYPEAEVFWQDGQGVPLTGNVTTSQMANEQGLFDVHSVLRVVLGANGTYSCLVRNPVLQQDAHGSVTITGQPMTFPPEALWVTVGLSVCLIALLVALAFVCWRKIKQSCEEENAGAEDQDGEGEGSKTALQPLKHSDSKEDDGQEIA

| SMILES | pKd |
| --- | --- |
| CC(=O)N[C@@H](CCC(C)C)C(=O)N[C@@H](Cc1ccc(O)cc1)C(=O)N[C@H]1CSCSC[C@@H](C(=O)N[C@@H](Cc2cccc3ccccc23)C(=O)N[C@@H](Cc2ccccc2)C(=O)N2CCC[C@H]2C(N)=O)NC(=O)[C@H](Cc2ccc(O)cc2)NC(=O)[C@H](C(C)C)NC(=O)[C@H](CC(=O)O)NC(=O)[C@H](Cc2ccncc2)NC(=O)[C@H](CCCCNC(=O)CN2CCN(CC(=O)O)CCN(CC(=O)O)CCN(CC(=O)O)CC2)NC(=O)CNC(=O)[C@H](C(C)(C)C)NC1=O [compound 330, Ac-hLeu-Y-C(CH2)-Tbg-G-Lys(DOTA)-4PyA-D-V-Y-C-1Nal-F-Pro-CONH2] (Ac-[hLeu]YC[Tle]GK(DOTA)[4Pal]DVYC[1Nal]FP-NH2; linker 3-11 via CH2) | 6.52 to 7.00 |
| CC(=O)N[C@@H](CCC(C)C)C(=O)N[C@@H](Cc1ccc(O)cc1)C(=O)N[C@H]1CSSC[C@@H](C(=O)N[C@@H](Cc2c[nH]c3ccc(F)cc23)C(=O)N[C@@H](Cc2ccccc2)C(=O)N[C@H](C(=O)N[C@H](CCCCNC(=O)CN2CCN(CC(=O)O)CCN(CC(=O)O)CCN(CC(=O)O)CC2)C(=O)O)[C@@H](C)O)NC(=O)[C@H](Cc2ccc(O)cc2)NC(=O)[C@H](C(C)C)NC(=O)[C@H](CC(=O)O)NC(=O)[C@H](CC2CCOCC2)NC(=O)[C@H](CCCCN)NC(=O)CNC(=O)[C@H](C(C)C)NC1=O [compound 331, Ac-hLeu-Y-C-V-G-K-ThpA-D-V-Y-C-5FW-F-Thr-dLys(DOTA)-COOH] (Ac-[hLeu]YCVGK[Ala(4-THP)]DVYC[Trp(5-F)]FT[dK](DOTA)-OH; disulfide 3-11) | > 9.00 |
| CC(=O)N[C@@H](CCC(C)C)C(=O)N[C@@H](Cc1ccc(O)cc1)C(=O)N[C@H]1CSSC[C@@H](C(=O)N[C@@H](Cc2c[nH]c3ccc(F)cc23)C(=O)N[C@@H](Cc2ccccc2)C(=O)N[C@H](C(=O)N[C@H](CCCCNC(=O)CN2CCN(CC(=O)O)CCN(CC(=O)O)CCN(CC(=O)O)CC2)C(=O)O)[C@@H](C)O)NC(=O)[C@H](Cc2ccc(O)cc2)NC(=O)[C@H](C(C)C)NC(=O)[C@H](CC(=O)O)NC(=O)[C@H](CC2CCOCC2)NC(=O)[C@H](CCCCN)NC(=O)CNC(=O)[C@H](C(C)(C)C)NC1=O [compound 332, Ac-hLeu-Y-C-Tbg-G-K-ThpA-D-V-Y-C-5FW-F-Thr-dLys(DOTA)-COOH] (Ac-[hLeu]YC[Tle]GK[Ala(4-THP)]DVYC[Trp(5-F)]FT[dK](DOTA)-OH; disulfide 3-11) | > 9.00 |
| CCCC[C@H](NC(=O)[C@H](Cc1c[nH]c2ccc(F)cc12)NC(=O)[C@@H]1CSSC[C@H](NC(=O)[C@H](Cc2ccc(O)cc2)NC(=O)[C@H](CCC(C)C)NC(C)=O)C(=O)N[C@@H](C(C)(C)C)C(=O)NCC(=O)N[C@@H](CCCCN)C(=O)N[C@@H](CC2CCOCC2)C(=O)N[C@@H](CC(=O)O)C(=O)N[C@@H](C(C)C)C(=O)N[C@@H](Cc2ccc(O)cc2)C(=O)N1)C(=O)N[C@H](C(=O)N[C@H](CCCCNC(=O)CN1CCN(CC(=O)O)CCN(CC(=O)O)CCN(CC(=O)O)CC1)C(=O)O)[C@@H](C)O [compound 333, Ac-hLeu-Y-C-Tbg-G-K-ThpA-D-V-Y-C-5FW-Nle-Thr-dLys(DOTA)-COOH] (Ac-[hLeu]YC[Tle]GK[Ala(4-THP)]DVYC[Trp(5-F)][Nle]T[dK](DOTA)-OH; disulfide 3-11) | 7.00 to 8.00 |
| CC(=O)N[C@@H](CCC(C)C)C(=O)N[C@@H](Cc1ccc(O)cc1)C(=O)N[C@H]1CSSC[C@@H](C(=O)N[C@@H](Cc2c[nH]c3ccc(F)cc23)C(=O)N[C@@H](CC(C)C)C(=O)N[C@H](C(=O)N[C@H](CCCCNC(=O)CN2CCN(CC(=O)O)CCN(CC(=O)O)CCN(CC(=O)O)CC2)C(=O)O)[C@@H](C)O)NC(=O)[C@H](Cc2ccc(O)cc2)NC(=O)[C@H](C(C)C)NC(=O)[C@H](CC(=O)O)NC(=O)[C@H](CC2CCOCC2)NC(=O)[C@H](CCCCN)NC(=O)CNC(=O)[C@H](C(C)(C)C)NC1=O [compound 334, Ac-hLeu-Y-C-Tbg-G-K-ThpA-D-V-Y-C-5FW-Leu-Thr-dLys(DOTA)-COOH] (Ac-[hLeu]YC[Tle]GK[Ala(4-THP)]DVYC[Trp(5-F)]LT[dK](DOTA)-OH; disulfide 3-11) | 7.00 to 8.00 |
| CC(=O)N[C@@H](CCC(C)C)C(=O)N[C@@H](Cc1ccc(O)cc1)C(=O)N[C@H]1CSSC[C@@H](C(=O)N[C@@H](Cc2c[nH]c3ccc(F)cc23)C(=O)N[C@H](C(=O)N[C@H](C(=O)N[C@H](CCCCNC(=O)CN2CCN(CC(=O)O)CCN(CC(=O)O)CCN(CC(=O)O)CC2)C(=O)O)[C@@H](C)O)C(C)(C)C)NC(=O)[C@H](Cc2ccc(O)cc2)NC(=O)[C@H](C(C)C)NC(=O)[C@H](CC(=O)O)NC(=O)[C@H](CC2CCOCC2)NC(=O)[C@H](CCCCN)NC(=O)CNC(=O)[C@H](C(C)(C)C)NC1=O [compound 335, Ac-hLeu-Y-C-Tbg-G-K-ThpA-D-V-Y-C-5FW-Tbg-Thr-dLys(DOTA)-COOH] (Ac-[hLeu]YC[Tle]GK[Ala(4-THP)]DVYC[Trp(5-F)][Tle]T[dK](DOTA)-OH; disulfide 3-11) | 8.00 to 9.00 |

Same assay, conditions: SPR KD—37° C., 4Ig B7-H3; 37° C. flow cell temperature

| SMILES | pKd |
| --- | --- |
| CC(=O)N[C@@H](CCC(C)C)C(=O)N[C@@H](Cc1ccc(O)cc1)C(=O)N[C@H]1CSSC[C@@H](C(=O)N[C@@H](Cc2c[nH]c3ccc(F)cc23)C(=O)N[C@@H](Cc2ccccc2)C(=O)N[C@H](C(=O)O)C(C)(C)O)NC(=O)[C@H](Cc2ccc(O)cc2)NC(=O)[C@H](C(C)C)NC(=O)[C@H](CC(=O)O)NC(=O)[C@H](Cc2ccc(C(=O)O)cc2)NC(=O)[C@H](CCCCNC(=O)CN2CCN(CC(=O)O)CCN(CC(=O)O)CCN(CC(=O)O)CC2)NC(=O)CNC(=O)[C@H](C(C)C)NC1=O [compound 325, Ac-hLeu-Y-C-V-G-Lys(DOTA)-4COOHPhe-D-V-Y-C-5FW-F-hydroxyVal-COOH] (Ac-[hLeu]YCVGK(DOTA)[Phe(4-COOH)]DVYC[Trp(5-F)]F[Val(3-OH)]-OH; disulfide 3-11) | 7.00 to 8.00 |
| CC(=O)N[C@@H](CCC(C)C)C(=O)N[C@@H](Cc1ccc(O)cc1)C(=O)N[C@H]1CSSC[C@@H](C(=O)N[C@@H](Cc2c[nH]c3ccc(F)cc23)C(=O)N[C@@H](Cc2ccccc2)C(=O)N[C@H](C(=O)O)[C@@H](C)O)NC(=O)[C@H](Cc2ccc(O)cc2)NC(=O)[C@H](C(C)C)NC(=O)[C@H](CC(=O)O)NC(=O)[C@H](CC2CCN(CC(=O)O)CC2)NC(=O)[C@H](CCCCNC(=O)CN2CCN(CC(=O)O)CCN(CC(=O)O)CCN(CC(=O)O)CC2)NC(=O)CNC(=O)[C@H](C(C)(C)C)NC1=O [compound 326, Ac-hLeu-Y-C-Tbg-G-Lys(DOTA)-Pip(CH2COOH)Ala-D-V-Y-C-5FW-F-Thr-COOH] (Ac-[hLeu]YC[Tle]GK(DOTA)[Ala(1-CH2CO2H-4-piperidyl)]DVYC[Trp(5-F)]FT-OH; disulfide 3-11) | 7.00 to 8.00 |
| CCCC[C@H](NC(=O)[C@H](Cc1c[nH]c2ccc(F)cc12)NC(=O)[C@@H]1CSSC[C@H](NC(=O)[C@H](Cc2ccc(O)cc2)NC(=O)[C@H](CCC(C)C)NC(C)=O)C(=O)N[C@@H](C(C)(C)C)C(=O)NCC(=O)N[C@@H](CCCCN)C(=O)N[C@@H](CC2CCOCC2)C(=O)N[C@@H](CC(=O)O)C(=O)N[C@@H](C(C)C)C(=O)N[C@@H](Cc2ccc(O)cc2)C(=O)N1)C(=O)N[C@H](C(=O)N[C@H](CCCCNC(=O)CN1CCN(CC(=O)O)CCN(CC(=O)O)CCN(CC(=O)O)CC1)C(=O)O)C(C)(C)O [compound 327, Ac-hLeu-Y-C-Tbg-G-K-ThpA-D-V-Y-C-5FW-Nle-hydroxyVal-dLys(DOTA)-COOH] (Ac-[hLeu]YC[Tle]GK[Ala(4-THP)]DVYC[Trp(5-F)][Nle][Val(3-OH)][dK](DOTA)-OH; disulfide 3-11) | 7.00 to 8.00 |
| CC(=O)N[C@@H](CCC(C)C)C(=O)N[C@@H](Cc1ccc(O)cc1)C(=O)N[C@H]1CSSC[C@@H](C(=O)N[C@@H](Cc2c[nH]c3ccc(F)cc23)C(=O)N[C@@H](Cc2ccccc2)C(=O)N[C@H](C(=O)O)[C@@H](C)O)NC(=O)[C@H](Cc2ccc(O)cc2)NC(=O)[C@H](C(C)C)NC(=O)[C@H](CC(=O)O)NC(=O)[C@H](CC2CCOCC2)NC(=O)[C@H](CCCCNC(=O)CN2CCN(CC(=O)O)CCN(CC(=O)O)CCN(CC(=O)O)CC2)NC(=O)CNC(=O)[C@H](C(C)(C)C)NC1=O [compound 328, Ac-hLeu-Y-C-Tbg-G-Lys(DOTA)-ThpA-D-V-Y-C-5FW-F-Thr-COOH] (Ac-[hLeu]YC[Tle]GK(DOTA)[Ala(4-THP)]DVYC[Trp(5-F)]FT-OH; disulfide 3-11) | 7.00 to 8.00 |
| CCCC[C@H](NC(=O)[C@H](Cc1c[nH]c2ccc(F)cc12)NC(=O)[C@@H]1CSSC[C@H](NC(=O)[C@H](Cc2ccc(O)cc2)NC(=O)[C@H](CCC(C)C)NC(C)=O)C(=O)N[C@@H](C(C)(C)C)C(=O)NCC(=O)N[C@@H](CCCCNC(=O)CN2CCN(CC(=O)O)CCN(CC(=O)O)CCN(CC(=O)O)CC2)C(=O)N[C@@H](CC2CCOCC2)C(=O)N[C@@H](CC(=O)O)C(=O)N[C@@H](C(C)C)C(=O)N[C@@H](Cc2ccc(O)cc2)C(=O)N1)C(=O)N[C@H](C(N)=O)C(C)(C)O [compound 336, Ac-hLeu-Y-C-Tbg-G-Lys(DOTA)-ThpA-D-V-Y-C-5FW-Nle-hydroxyVal-CONH2] (Ac-[hLeu]YC[Tle]GK(DOTA)[Ala(4-THP)]DVYC[Trp(5-F)][Nle][Val(3-OH)]-NH2; disulfide 3-11) | 7.00 to 8.00 |
